Source: USRE36520E, “HMG-CoA reductase inhibitors” (Merck & Co., Inc., priority 1998, dated 2000)

test system: HMG-CoA reductase; assay: HMG-CoA reductase inhibition assay (in vitro protocol of J. Med. Chem., 28, 347-358); format: biochemical; settings: relative to compactin arbitrarily assigned a value of 100; IC50 compared with that of compactin determined simultaneously; tested as sodium salt of dihydroxy acid form; enzyme solubilized from rat liver microsomes
Procedure: The intrinsic HMG-CoA reductase inhibition activity of the claimed compounds is measured in the in vitro protocol published in J. Med. Chem., 28, p. 347-358 (1985) and described below: Male Holtzman Sprague-Dawley rats (225-250 g) were kept on reversed lighting and fed Purina rat chow containing 3% cholestyramine for 7 days preceding their sacrifice by CO2 asphyxiation. Livers were removed 6 hours into the dark cycle and used immediately to prepare microsomes. HMG-CoA reductase was solubilized from the freshly prepared microsomes by the method of Heller and Shrewsbury [J. Biol. Chem., 1976, 251, 3815] and purified through the second ammonium sulfate precipitation step as described by Kleinsek et al. [Proc. Natl. Acad. Sci. USA, 1977, 74, 1431]. […] The enzyme preparation was stored at -80° C. The assay is essentially the procedure of Shefer et al. [J. Lipid Res., 1972, 13, 402]. The complete assay medium contained the following in a total volume of 0.8 ml: phosphate buffer, pH 7.2, 100 mM; MgCl2, 3 mM; NADP, 3 mM; glucose-6-phosphate, 10 mM; glucose-6-phosphate dehydro-genase, 3 enzyme units; reduced glutathione, 50 mM; HMG-CoA (qlutaryl-3-^14 C, New England Nuclear), 0.2 mM (0.1 μCi); and partially purified enzyme stock solution, 100 μL. […] After a 40-minute incubation at 37° C. with shaking and exposure to air, the reaction was stopped by the addition of 0.4 mL of 8N HCl. After an additional 30-minute incubation period at 37° C. to ensure the complete lactonization of mevalonic acid to mevalonolactone, 0.2 ml of the mixture was added to an 0.5×5.0 cm column containing 100-200 mesh Bio-Rex 5, chloride form (Bio-Rad), wetted with distilled water, as described by Alberts et al. [Proc. Natl. Acad. Sci. U.S.A., 1980, 77, 3967]. The unreacted [^14 C]HMG-CoA was absorbed on the resin and the [^14 C]mevalonolactone was eluted with distilled water (2×1 ml) directly into 7-ml scintillation vials. Five milliliters of Aquasol-2 (New England Nuclear) was added to each vial, and radioactivity was measured in a Packard Tri Carb Prias scintillation counter. IC50 values were determined by plotting percentage inhibition against test compound concentration and fitting a straight line to the resulting data by using the least-squares method.

Sequence of HMG-CoA reductase (P51639 425-887 limits assumed): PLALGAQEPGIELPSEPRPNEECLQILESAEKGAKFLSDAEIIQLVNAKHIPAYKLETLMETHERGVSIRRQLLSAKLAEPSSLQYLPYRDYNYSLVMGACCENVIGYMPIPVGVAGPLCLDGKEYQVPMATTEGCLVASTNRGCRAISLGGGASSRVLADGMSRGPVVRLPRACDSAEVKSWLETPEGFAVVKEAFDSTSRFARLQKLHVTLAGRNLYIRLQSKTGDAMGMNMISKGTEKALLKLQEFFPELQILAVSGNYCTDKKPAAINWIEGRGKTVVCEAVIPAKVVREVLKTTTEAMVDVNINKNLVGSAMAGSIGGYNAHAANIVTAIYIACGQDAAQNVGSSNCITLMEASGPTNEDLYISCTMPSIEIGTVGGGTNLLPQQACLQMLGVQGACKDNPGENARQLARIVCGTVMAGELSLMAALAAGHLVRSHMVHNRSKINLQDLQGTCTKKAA

Row | Relative Potency | Compound
1 | 86 | 6(R)-[2-[8(S)-(2,2-dimethylbutyryloxy)-2(S)-methyl-6(S)-hydroxymethyl-1,2,3,4,4a(S),5,6,7,8,8a(S)-decahydronaphthyl-1(S)]ethyl]-4(R)-hydroxy-3,4,5,6- tetrahydro-2H-pyran-2-one [-- -- -- S CH2 OH 1,1-dimethylpropyl]
2 | 99 | 6(R)-[2-[8(S)-(2,2-Dimethylbutyryloxy)-6(S)-carboxy-2(S)-methyl-1,2,6,7,8,8a(R)-hexahydronaphthyl-1(S)]ethyl]-4(R)-hydroxy-3,4,5,6-tetrahydro-2H-pyran-2-one [db -- db S CO2 H 1,1-dimethylpropyl]
3 | 213 | 6(R)-[2-[8(S)-(2,2-Dimethylbutyryloxy)-6(R)-hydroxymethyl-2(S)methyl-1,2,3,4,6,7,8,8a(R)-octahydronaphthyl-1(S)]ethyl]-4(R)-hydroxy-3,4,5,6-tetrahydro-2H-pyran-2-one [db -- -- R CH2 OH 1,1-dimethylpropyl]
4 | 107 | 6(R)-[2-[8(S)-(2,2-Dimethylbutyryloxy)-2(S)-methyl-6(S)-aminocarbonyl-1,2,3,4,4a(S),5,6,7,8,8a(S)-decahydronaphthyl-1(S)]ethyl]-4(R)-hydroxy-3,4,5,6- tetrahydro-2H-pyran-2-one [-- -- -- S CONH2 1,1-dimethylpropyl]
5 | 80 | 6(R)-[2-[8(S)-(2,2-Dimethylbutyryloxy)-2(S)-methyl-6(S)-isopropoxycarbonyl-1,2,3,4,4a(S),5,6,7,8,8a(S)-decahydronaphthyl-1(S)]ethyl]-4(R)-hydroxy-3,4,5,6-tetrahydro-2H-pyran-2-one [-- -- -- S CO2-i-Pr 1,1-dimethylpropyl]
6 | 189 | 6(R)-[2-[8(S)-(2,2-Dimethylbutyryloxy)-6(S)-hydroxymethyl-2(S)-methyl-1,2,6,7,8,8a(R)-hexahydronaphthyl-1(S)]ethyl]-4(R)-hydroxy-3,4,5,6-tetrahydro-2H-pyran-2-one [db -- db S CH2 OH 1,1-dimethylpropyl]
7 | 65 | 6(R)-[2-[8(S)-(2,2-dimethylbutyryloxy)-6(S)-(N,N-diethyl)aminocarbonyl-2(S)-methyl-1,2,6,7,8,8a(R)-hexahydronaphthyl-1(S)]ethyl]-4(R)-hydroxy-3,4,5,6-tetrahydro-2H-pyran-2-one [db -- db S CONEt2 1,1-dimethylpropyl]
8 | 75 | 6(R)-[2-[8(S)-(2,2-Dimethylbutyryloxy)-2(S)-methyl-6(S)-(N,N-dimethyl)aminocarbonyl-1,2,3,4,4a(S),5,6,7,8,8a(S)-decahydronaphthyl-1(S)]-ethyl]-4(R)-hydroxy-3,4,5,6-tetrahydro-2H-pyran-2-one [-- -- -- S CONMe2 1,1-dimethylpropyl]
9 | 94 | 6(R)-[2-[8(S)-(2,2-Dimethylbutyryloxy)-6(R)-carboxy-2(S)-methyl-1,2,6,7,8,8a(R)-hexahydronaphthyl-1(S)]ethyl]-4(R)-hydroxy-3,4,5,6-tetrahydro-2H-pyran-2-one [db -- db R CO2 H 1,1-dimethylpropyl]
10 | 104 | 6(R)-[2-[8(S)-(2,2-dimethylbutyryloxy)-2(S)-methyl-6(R)-(1-hydroxyethyl)-1,2,3,4,4a(S),5,6,7,8,8a(S)-decahydronaphthyl-1(S)]ethyl]-4(R)-hydroxy-3,4,5,6-tetrahydro-2H-pyran-2-one [-- -- -- R CHOHCH3 (ISOMER B) 1,1-dimethylpropyl]
11 | 82 | 6(R)-[2-[8(S)-(2,2-Dimethylbutyryloxy)-6(S)-(N,N-dimethyl)aminocarbonyl-2(S)methyl-1,2,6,7,8,8a(R)-hexahydronaphthyl-1(S)]ethyl]-4(R)-hydroxy-3,4,5,6-tetrahydro-2H-pyran-2-one [db -- db S CONMe2 1,1-dimethylpropyl]
12 | 131 | 6(R)-[2-[8(S)-(2,2-dimethylbutyryloxy)-2(S)-methyl-6(S)-(1-hydroxyethyl)-1,2,3,4,4a,(S),5,6,7,8,8a(R)-decahydronaphthyl-1(S)]ethyl]-4(R)-hydroxy-3,4,5,6-tetrahydro-2H-pyran-2-one [-- -- -- S CHOHCH3 (ISOMER A) 1,1-dimethylpropyl]
13 | 79 | 6(R)-[2-[8(S)-(2,2-Dimethylbutyryloxy)-2(S)-methyl-6(S)-carboxy-1,2,3,4,4a(S),5,6,7,8,8a(S)-decahydronaphthyl-1(S)]-ethyl]-4(R)-hydroxy-3,4,5,6-tetrahydro-2H-pyran-2-one [-- -- -- S CO2 H 1,1-dimethylpropyl]
14 | 125 | 6(R)-[2-[8(S)-(2,2-Dimethylbutyryloxy)-2(S)-methyl-6(S)-ethoxycarbonyl-1,2,3,4,4a(S),5,6,7,8,8a(S)-decahydronaphthyl-1(S)]ethyl]-4(R)-hydroxy-3,4,5,6-tetrahydro-2H-pyran-2-one [-- -- -- S CO2 Et 1,1-dimethylpropyl]
15 | 111 | 6(R)-[2-[8(S)-(2,2-dimethylbutyryloxy)-2(S)-methyl-6(R)-(1-hydroxyethyl)-1,2,3,4,4a(S),5,6,7,8,8a(S)-decahydronaphthyl-1(S)]ethyl]-4(R)-hydroxy-3,4,5,6-tetrahydro-2H-pyran-2-one [-- -- -- R CHOHCH3 (ISOMER A) 1,1-dimethylpropyl]
16 | 33 | 6(R)-[2-[8(S)-(Cyclohexylcarbonyloxy)-6(S)-hydroxymethyl-2(S)-methyl-1,2,3,4,4a(S),5,6,7,8,8a(S)-decahydronaphthyl-1(S)]ethyl]-4(R)-hydroxy-3,4,5,6-tetrahydro-2H-pyran-2-one [-- -- -- S CH2 OH cyclohexyl]
17 | 47 | 6(R)-[2-[8(S)-(2-methylbutyryloxy)-2(S)-methyl-6(R)-(hydroxymethyl)-1,2,6,7,8,8a(R)-hexahydronaphthyl-1(S)]ethyl]-4(R)-hydroxy-3,4,5,6-tetrahydro-2H- pyran-2-one [db -- db R CH2 OH sec-butyl]
18 | 100 | 6(R)-[2-[8(S)-(2,2-dimethylbutyryloxy)-2(S)-methyl-6(S)-(2,2-dimethylbutyryloxymethyl)-1,2,3,4,4a(S),5,6,7,8,8a(S)-decahydronaphthyl-1(S)]ethyl]-4(R)-hydroxy-3,4,5,6-tetrahydro-2H-pyran-2-one
19 | 26 | 6(R)-[2-[8(S)-(2-methylbutyryloxy)-6(S)-carboxy-2(S)-methyl-1,2,6,7,8,8a(R)-hexahydronaphthyl-1(S)]ethyl]-4(R)-hydroxy-3,4,5,6-tetrahydro-2H-pyran-2- one [db -- db S CO2 H sec-butyl]
20 | 33 | 6(R)-[2-[8(S)-(2,2-Dimethylbutyryloxy)-6(R)-(2,2-dimethylbutyryloxymethyl)-2(S)-methyl-1,2,3,4,6,7,8,8a(R)-octahydronaphthyl-1(S)]-ethyl]-4(R)-hydroxy-3,4,5,6-tetrahydro-2H-pyran-2-one
21 | 113 | 6(R)-[2-[8(S)-(2,2-dimethylbutyryloxy)-2(S)-methyl-6(S)-(1-hydroxyethyl)-1,2,3,4,4a,(S),5,6,7,8,8a(R)-decahydronaphthyl-1(S)]ethyl]-4(R)-hydroxy-3,4,5,6-tetrahydro-2H-pyran-2-one [-- -- -- S CHOHCH3 (ISOMER B) 1,1-dimethylpropyl]
22 | 220 | 6(R)-[2-[8(S)-(2,2-Dimethylbutyryloxy)-2(S)-methyl-6(S)-(α-hydroxybenzyl)-1,2,3,4,4a(S),5,6,7,8,8a-(S)-decahydronaphthyl-1(S)]ethyl]-4(R)-hydroxy-3,4,5,6-tetrahydro-2H-pyran-2-one [-- -- -- S CHOHPH 1,1-dimethylpropyl]

test system: not listed separately; assay: Stability of the free dihydroxy acid on standing; format: physicochemical; settings: dihydroxy acid can be maintained by increasing the pH above 7.0
Procedure: The sodium salt of the compound II from Example 64 is dissolved in 2 ml of ethanol-water (1:1; v:v) and added to 10 ml of 1N hydrochloric acid from which the dihydroxy acid is extracted with ethyl acetate. The organic extract is washed once with water, dried (Na2 SO4), and evaporated in vacuo with a bath temperature not exceeding 30° C. […] The dihydroxy acid can be maintained by increasing the pH above 7.0.

Row | Compound | reversion of dihydroxy acid to parent lactone
23 | CCC(C)(C)C(=O)O[C@H]1C[C@@H](CO)C[C@@H]2CC[C@H](C)[C@H](CC[C@@H](O)C[C@@H](O)CC(=O)O)[C@H]21 [Example 70] | slowly reverts to the corresponding,parent lactone on standing
